Laboratory results as given in patent US8084621B2, “3-Pyrrolo[b]cyclohexylene-2-dihydroindolinone derivatives and uses thereof” (Jiangsu Simcere Pharmaceutical R&D Co. Ltd., priority 2006, dated 2011).

Legend:
Assay type in all cases: cell-based
[1] = test system: Human Small Cell Lung Cancer Cell Line (NCI-H446); experiment: Tumor cell proliferation assay (MTT), NCI-H446; details: for inhibition at 10 µM: concentration of 10^−5 mol/L, preliminary screening, 72 hours, read-out: Inhibition rate % NCI-H446; for IC50: secondary screening, 48 hours
Text: (§1) The assay used generally is the blue tetrazolium bromide (MTT) method. […] The amount of formazan can be detected by the microplate reader through the absorption value at 570 nm. The amount of formazan product generated is proportional to the number of living cells in the sample, so the OD value may reflect the number of living cells and the ability of a test drug to inhibit or kill cells. The MTT assay may be used in determining the ability of different compounds of the present invention to inhibit one or more cancer cells proliferation. Similar assays can be designed along the same lines for any cancer cell using techniques well known in the art.
(§2) The assay used generally is the blue tetrazolium bromide (MTT) method. […] Intracellular purple formazan salt crystals can be solved in DMSO and the absorption value at 570 nm is detected by the microplate reader, then the number of living cells can be detected indirectly. So MTT assay may be used to determine the ability of a compound of the present invention to inhibit cell proliferation. Similar assays can be designed along the same lines for any cancer cell using techniques well known in the art.
2.2.5 Human Small Cell Lung Cancer Cell Line (NCI-H446)
(§3) The cells of the 2.2.1, 2.2.2, 2.2.3, 2.2.4, 2.2.5 cultured with RPMI 1640 containing 12% calf serum in the condition of 37° C., 5% CO2.
(§4) 2.3.1 Cell seeding: Trypsinize the cell by 0.05% trypsin-EDTA and add RPMI 1640 medium (DMEM or 5A) containing 12% calf serum. Count the number, then dilute to 1.67×10^4/ml. Add 180 ul/well to the 96 well plate (3000 cells/well).
(§5) 2.3.2 Culture: cells are incubated for 24 hours at 37° C. under 5% CO2.
(§6) 2.3.3 Preliminary screening: The compounds are firstly diluted to 0.1 mol/L with DMSO, and then diluted to three concentrations of 10^−5 mol/L, 10^−6 mol/L and 10^−7 mol/L. Add 20 ul test compounds to the 96 well plate and incubate for 72 hours. Each group has three parallel wells and all experiments repeat three times. Each inhibition ratio is calculated, then an average value of three times is taken as the measured value. 2.3.4 Staining 2.3.4.1 Attached cell: add 20 ul/well MTT to the 96-well plates; incubate for 4 hours in the incubator. Pour out the culture medium in the well and add 100 ul/well DMSO. Shake the plate for 5 min. 2.3.4.2 Suspension cell: add 20 ul/well MTT to the 96-well plates; incubate for 4 hours in the incubator. Add 50 ul/well 20% SDS and incubate for overnight in the incubator. 2.3.5 Reading the plates: read the absorbance A570-A630 with the Infinite M200 microtiter plate reader. Calculate the inhibition ratio of the test compounds. 2.3.6 Secondary screening: the compounds whose inhibition ratio is greater than 50% at the concentrations of 10^−5 mol/L in the preliminary screening will be picked out for Secondary screening. Dilute these compounds to ten concentrations: 10^−5 mol/L, 0.5×10^−5 mol/L, 10^−6 mol/L, 0.8×10^−6 mol/L, 0.6×10^−6 mol/L, 0.4×10^−6 mol/L, 0.2×10^−6 mol/L, 10^−7 mol/L, 0.8×10^−7 mol/L and 0.4×10^−7 mol/L. Add 20 ul test compound solution to the 96 well plate and incubate for 48 hours. Each group has three parallel wells and all experiments repeat for three times. Read the plates and calculate the inhibition ratio according to the preliminary screening method. 2.3.7 Calculate the Inhibition Ratio of Cell Proliferation and the IC50
(§7) According to the inhibition ratio of cell proliferation at the different concentrations of the compound, inhibition ratio of 50% of the test compound is calculated through the logarithm of the concentration of the compound with the Logit [I] linear regression, and an average value of three times is taken as the measured value of a sample.

[2] = test system: Human Pancreatic Carcinoma Cells (PANC-1); experiment: Tumor cell proliferation assay (MTT), PANC-1; details: for inhibition at 10 µM: concentration of 10^−5 mol/L, preliminary screening, 72 hours, read-out: Inhibition rate % PANC-1; for IC50: secondary screening, 48 hours
Text: as §1, §2
2.2.4 Human Pancreatic Carcinoma Cells (PANC-1)
as §3, §4, §5, §6, §7

[3] = test system: Human Colon Cancer Cell Line (HT-29); experiment: Tumor cell proliferation assay (MTT), HT29; details: for inhibition at 10 µM: concentration of 10^−5 mol/L, preliminary screening, 72 hours, read-out: Inhibition rate % HT29; for IC50: secondary screening, 48 hours
Text: as §1, §2
2.2.11 Human Colon Cancer Cell Line (HT-29);
(§8) The cells of 2.2.11, 2.2.12, 2.2.13 were cultured in MC COYS 5-A medium containing 12% fetal bovine serum in the condition of 37° C., 5% CO2.
as §4, §5
as §6, with “2.3.6 Secondary screening: the compounds whose inhibition ratio is greater than 50% at the concentrations of 10^−5 mol/L in the preliminary screening will be picked out for Secondary screening.” left out
as §7

[4] = test system: Human Pancreatic Carcinoma Cell Line (BXPC-3); experiment: Tumor cell proliferation assay (MTT), BXPC-3; details: for inhibition at 10 µM: concentration of 10^−5 mol/L, preliminary screening, 72 hours, read-out: Inhibition rate % BXPC-3; for IC50: secondary screening, 48 hours
Text: as §1, §2
2.2.6 Human Pancreatic Carcinoma Cell Line (BXPC-3);
The cells of 2.2.6, 2.2.7 cultured in RPMI 1640 medium containing 12% fetal bovine serum in the condition of 37° C., 5% CO2.
as §4, §5
as §6, with “2.3.6 Secondary screening: the compounds whose inhibition ratio is greater than 50% at the concentrations of 10^−5 mol/L in the preliminary screening will be picked out for Secondary screening.” left out
as §7

[5] = test system: Human Gastric Cancer Cell Line (BGC); experiment: Tumor cell proliferation assay (MTT), BGC; details: for inhibition at 10 µM: concentration of 10^−5 mol/L, preliminary screening, 72 hours, read-out: Inhibition rate % BGC; for IC50: secondary screening, 48 hours
Text: as §1, §2
2.2.1 Human Gastric Cancer Cell Line (BGC)
as §3, §4, §5, §6, §7

[6] = test system: Human Non-Small Cell Lung Cancer Cell Line (A549); experiment: Tumor cell proliferation assay (MTT), A549; details: for inhibition at 10 µM: concentration of 10^−5 mol/L, preliminary screening, 72 hours, read-out: Inhibition rate % A549; for IC50: secondary screening, 48 hours
Text: as §1, §2
2.2.2 Human Non-Small Cell Lung Cancer Cell Line (A549)
as §3, §4, §5, §6, §7

[7] = test system: Human Ovarian Cancer Cell Line (SK-OV-3); experiment: Tumor cell proliferation assay (MTT), SK-OV-3; details: for inhibition at 10 µM: concentration of 10^−5 mol/L, preliminary screening, 72 hours, read-out: Inhibition rate % SK-OV-3; for IC50: secondary screening, 48 hours
Text: as §1, §2
2.2.13 Human Ovarian Cancer Cell Line (SK-OV-3).
as §8, §4, §5, §6, §7

Cc1[nH]c2c(c1C(=O)NCC(O)CN1CCN(C)CC1)CCC/C2=C1/C(=O)Nc2ccc(Cl)cc21 (centres unmarked) [I-78, N-[2-hydroxy-3-(4-methylpiperazin-1-yl)propyl]-2-methyl-7-[1,2-dihydro-5-chloro-2-oxo-3H-indol-(Z)-3-ylidene]-4,5,6,7-tetrahydro-1H-indole-3-carboxamide]
inhibition at 10 µM [1]: 8.07% | inhibition at 10 µM [2]: 21.8% | inhibition at 10 µM [3]: 24.2% | inhibition at 10 µM [4]: 31.7% | inhibition at 10 µM [5]: 48.5% | IC50 [5]: 12200 nM | inhibition at 10 µM [6]: 29.9% | inhibition at 10 µM [7]: 20.2%

Cc1[nH]c2c(c1C(=O)NCC(O)CN1CCOCC1)CCC/C2=C1/C(=O)Nc2ccc(Cl)cc21 (centres unmarked) [I-69, N-(2-hydroxy-3-morpholinopropyl)-2-methyl-7-[1,2-dihydro-5-chloro-2-oxo-3H-indol-(Z)-3-ylidene]-4,5,6,7-tetrahydro-1H-indole-3-carboxamide]
inhibition at 10 µM [1]: 25.3% | inhibition at 10 µM [2]: 22.4% | inhibition at 10 µM [3]: 34.9% | inhibition at 10 µM [4]: 39.9% | inhibition at 10 µM [5]: 30% | inhibition at 10 µM [6]: 18.9% | inhibition at 10 µM [7]: 2.8%

CCN(CC)CC(O)CNC(=O)c1c(C)[nH]c2c1CCC/C2=C1/C(=O)Nc2ccc(F)cc21 (centres unmarked) [I-64, N-(3-(diethylamino)-2-hydroxypropyl)-2-methyl-7-[1,2-dihydro-5-fluoro-2-oxo-3H-indol-(Z)-3-ylidene]-4,5,6,7-tetrahydro-1H-indole-3-carboxamide]
inhibition at 10 µM [1]: 98.1% | IC50 [1]: 2050 nM | inhibition at 10 µM [3]: 96.6% | IC50 [3]: 1300 nM | inhibition at 10 µM [4]: 98.5% | IC50 [4]: 1290 nM | inhibition at 10 µM [5]: 84.7% | IC50 [5]: 2210 nM | inhibition at 10 µM [7]: 93.5% | IC50 [7]: 2240 nM

Cc1[nH]c2c(c1C(=O)NCC(O)CN(C)C)CCC/C2=C1/C(=O)Nc2ccc(F)cc21 (centres unmarked) [I-66, N-(3-(dimethylamino)-2-hydroxypropyl)-2-methyl-7-[1,2-dihydro-5-fluoro-2-oxo-3H-indol-(Z)-3-ylidene]-4,5,6,7-tetrahydro-1H-indole-3-carboxamide]
inhibition at 10 µM [1]: 88.7% | IC50 [1]: 3030 nM | inhibition at 10 µM [3]: 93% | IC50 [3]: 2890 nM | inhibition at 10 µM [4]: 97.9% | IC50 [4]: 3190 nM | inhibition at 10 µM [5]: 76.8% | IC50 [5]: 4660 nM | inhibition at 10 µM [7]: 85.1% | IC50 [7]: 3170 nM

Cc1[nH]c2c(c1C(=O)NCC(O)CN1CCCC1)CCC/C2=C1/C(=O)Nc2ccc(Cl)cc21 (centres unmarked) [I-72, N-(2-hydroxy-3-(pyrrolidin-1-yl)propyl)-2-methyl-7-[1,2-dihydro-5-chloro-2-oxo-3H-indol-(Z)-3-ylidene]-4,5,6,7-tetrahydro-1H-indole-3-carboxamide]
inhibition at 10 µM [1]: 97.9% | IC50 [1]: 2980 nM | inhibition at 10 µM [2]: 98.1% | IC50 [2]: 1810 nM | inhibition at 10 µM [3]: 97.4% | IC50 [3]: 4360 nM | inhibition at 10 µM [4]: 99.3% | IC50 [4]: 1890 nM | inhibition at 10 µM [5]: 85.9% | IC50 [5]: 2920 nM | inhibition at 10 µM [6]: 81.2% | IC50 [6]: 3730 nM | inhibition at 10 µM [7]: 95.1% | IC50 [7]: 2170 nM

Cc1ccc2c(c1)/C(=C1\CCCc3c1[nH]c(C)c3C(=O)NCC(O)CN(C)C1CCCCC1)C(=O)N2 (centres unmarked) [I-79, N-[3-(cyclohexyl(methyl)amino)-2-hydroxypropyl]-2-methyl-7-[1,2-dihydro-5-methyl-2-oxo-3H-indol-(Z)-3-ylidene]-4,5,6,7-tetrahydro-1H-indole-3-carboxamide]
IC50 [1]: 3260 nM | inhibition at 10 µM [2]: 96.8% | IC50 [2]: 3990 nM | inhibition at 10 µM [3]: 98.2% | IC50 [3]: 2320 nM | inhibition at 10 µM [4]: 99% | IC50 [4]: 840 nM | inhibition at 10 µM [5]: 81% | IC50 [5]: 2280 nM | inhibition at 10 µM [6]: 63.3% | IC50 [6]: 2840 nM | inhibition at 10 µM [7]: 96% | IC50 [7]: 1510 nM

Cc1[nH]c2c(c1C(=O)NCC(O)CN1CCOCC1)CCC/C2=C1/C(=O)Nc2ccccc21 (centres unmarked) [I-67, N-(2-hydroxy-3-morpholinopropyl)-2-methyl-7-[1,2-dihydro-2-oxo-3H-indol-(Z)-3-ylidene]-4,5,6,7-tetrahydro-1H-indole-3-carboxamide]
inhibition at 10 µM [1]: 49.3% | IC50 [1]: 9420 nM | inhibition at 10 µM [2]: 31.5% | inhibition at 10 µM [3]: 51.9% | IC50 [3]: 6900 nM | inhibition at 10 µM [4]: 51.7% | IC50 [4]: 7680 nM | inhibition at 10 µM [5]: 67.6% | IC50 [5]: 4260 nM | inhibition at 10 µM [7]: 8.34%

Cc1[nH]c2c(c1C(=O)NCC(O)CN1CCN(C)CC1)CCC/C2=C1/C(=O)Nc2ccccc21 (centres unmarked) [I-76, N-[2-hydroxy-3-(4-methylpiperazin-1-yl)propyl]-2-methyl-7-[1,2-dihydro-2-oxo-3H-indol-(Z)-3-ylidene]-4,5,6,7-tetrahydro-1H-indole-3-carboxamide]
inhibition at 10 µM [1]: 64.6% | IC50 [1]: 7090 nM | inhibition at 10 µM [2]: 80.1% | IC50 [2]: 3400 nM | inhibition at 10 µM [3]: 92.1% | IC50 [3]: 1380 nM | inhibition at 10 µM [4]: 97.5% | IC50 [4]: 2240 nM | inhibition at 10 µM [5]: 74.2% | IC50 [5]: 3630 nM | inhibition at 10 µM [6]: 64.5% | IC50 [6]: 1360 nM | inhibition at 10 µM [7]: 90.3% | IC50 [7]: 3030 nM
